A compilation of properties of binary mixtures (doi:10.1016/j.fluid.2015.01.011)

Assay: xn = mol fraction of the nth substance listed
Conditions: 100 kPa

CC[n+]1ccn(C)c1.N#C[S-] + CCOS(=O)(=O)[O-].CC[n+]1ccn(C)c1
Conditions	electrical conductivity [S/m]	viscosity [mPa·s]
298.15 K, x1 = 0.199	0.421	96.4
298.15 K, x1 = 0.32	0.569	83.5
298.15 K, x1 = 0.429	0.745	65.3
298.15 K, x1 = 0.899	1.84	27.8
298.15 K, x1 = 0.9505	2.1	25
298.15 K, x1 = 1	2.32	23.1
303.15 K, x1 = 0.199	0.512	76.1
303.15 K, x1 = 0.32	0.696	66.5
303.15 K, x1 = 0.429	0.809	52.7
303.15 K, x1 = 0.67	1.38	35.8
303.15 K, x1 = 0.899	2.15	23.5
303.15 K, x1 = 0.9505	2.29	21.2
303.15 K, x1 = 1	2.67	19.68
308.15 K, x1 = 0.32	0.842	53.9
308.15 K, x1 = 0.429	1.09	43.1
308.15 K, x1 = 0.67	1.62	30
308.15 K, x1 = 0.899	2.5	20.07
308.15 K, x1 = 0.9505	2.79	18.2
308.15 K, x1 = 1	3.06	16.97
313.15 K, x1 = 0.199	0.733	61.2
313.15 K, x1 = 0.32	1	53.9
313.15 K, x1 = 0.67	1.88	30
313.15 K, x1 = 0.899	2.85	20.07
313.15 K, x1 = 0.9505	3.18	18.2
313.15 K, x1 = 1	3.47	16.97
318.15 K, x1 = 0.199	0.861	50.1
318.15 K, x1 = 0.32	1.19	44.4
318.15 K, x1 = 0.429	1.29	–
318.15 K, x1 = 0.67	2.18	–
318.15 K, x1 = 0.899	3.25	–
318.15 K, x1 = 1	3.92	14.54
323.15 K, x1 = 0.199	1.02	34.7
323.15 K, x1 = 0.32	1.38	31.1
323.15 K, x1 = 0.429	1.52	25.7
323.15 K, x1 = 0.67	2.49	18.78
323.15 K, x1 = 0.9505	4.04	12.2
323.15 K, x1 = 1	4.38	11.49
328.15 K, x1 = 0.199	–	29.5
328.15 K, x1 = 0.32	–	26.6
328.15 K, x1 = 0.67	–	16.38
328.15 K, x1 = 0.899	–	11.78
328.15 K, x1 = 0.9505	–	10.86
328.15 K, x1 = 1	–	10.25
333.15 K, x1 = 0.199	–	25.3
333.15 K, x1 = 0.429	–	19.14
333.15 K, x1 = 0.67	–	14.35
333.15 K, x1 = 0.899	–	10.37
333.15 K, x1 = 0.9505	–	9.56
333.15 K, x1 = 1	–	9.02
338.15 K, x1 = 0.199	–	21.85
338.15 K, x1 = 0.32	–	19.89
338.15 K, x1 = 0.429	–	16.74
338.15 K, x1 = 0.67	–	12.76
338.15 K, x1 = 0.9505	–	8.75
338.15 K, x1 = 1	–	8.3
343.15 K, x1 = 0.199	–	19.06
343.15 K, x1 = 0.67	–	11.37
343.15 K, x1 = 0.899	–	8.53
343.15 K, x1 = 0.9505	–	7.92
343.15 K, x1 = 1	–	7.53
348.15 K, x1 = 0.199	–	16.75
348.15 K, x1 = 0.32	–	15.38
348.15 K, x1 = 0.429	–	13.08
348.15 K, x1 = 0.67	–	10.21
348.15 K, x1 = 0.899	–	7.74
348.15 K, x1 = 1	–	6.87
353.15 K, x1 = 0.199	–	14.87
353.15 K, x1 = 0.32	–	13.71
353.15 K, x1 = 0.429	–	11.68
353.15 K, x1 = 0.67	–	9.16
353.15 K, x1 = 0.899	–	6.96
353.15 K, x1 = 0.9505	–	6.48
353.15 K, x1 = 1	–	6.17

CC[n+]1ccn(C)c1.N#C[S-] + CC[n+]1ccn(C)c1.N#C[N-]C#N
x1 = 1
Conditions	electrical conductivity [S/m]	viscosity [mPa·s]
298.15 K	2.32	23.1
303.15 K	2.67	19.68
308.15 K	3.06	16.97
313.15 K	3.47	14.54
323.15 K	4.38	11.49
333.15 K	–	9.02
348.15 K	–	6.87
353.15 K	–	6.17

CCOS(=O)(=O)[O-].CC[n+]1ccn(C)c1 + CC[n+]1ccn(C)c1.N#C[S-]
x2 = 0
Conditions	electrical conductivity [S/m]	viscosity [mPa·s]
298.15 K	0.308	96.9
303.15 K	0.382	76.5
308.15 K	0.469	61.6
313.15 K	0.57	–
318.15 K	0.678	–
323.15 K	0.871	35
328.15 K	–	29.7
333.15 K	–	25.6
338.15 K	–	22.04
343.15 K	–	19.23
348.15 K	–	16.89

CC[n+]1ccn(C)c1.N#C[N-]C#N + CC[n+]1ccn(C)c1.N#C[S-]
Conditions	electrical conductivity, x2 = 0 [S/m]	electrical conductivity, x2 = 0.2585 [S/m]	electrical conductivity, x2 = 0.5112 [S/m]	electrical conductivity, x2 = 0.7603 [S/m]	viscosity, x2 = 0 [mPa·s]	viscosity, x2 = 0.2585 [mPa·s]	viscosity, x2 = 0.5112 [mPa·s]	viscosity, x2 = 0.7603 [mPa·s]
298.15 K	2.84	–	2.51	2.41	14.78	–	18.27	20.62
303.15 K	3.22	3.05	2.89	2.76	12.87	14.18	15.74	17.66
308.15 K	3.63	–	3.27	3.14	11.3	–	13.7	15.3
313.15 K	4.06	3.87	3.67	3.56	9.76	10.72	11.78	13.12
318.15 K	–	4.33	4.14	–	–	9.75	10.66	–
323.15 K	5.02	4.81	–	4.48	8.01	8.73	–	10.47
328.15 K	–	–	–	–	7.24	–	8.54	9.37
333.15 K	–	–	–	–	–	6.92	7.51	8.25
338.15 K	–	–	–	–	6	–	7.01	7.64
343.15 K	–	–	–	–	5.51	5.94	6.4	6.95
348.15 K	–	–	–	–	5.06	5.47	–	6.36
353.15 K	–	–	–	–	4.52	4.89	5.25	–

[N-]=C=S.[NH4+] + CC[n+]1ccn(C)c1.N#C[S-]
Conditions	electrical conductivity, x1 = 0.039 [S/m]	electrical conductivity, x1 = 0.099 [S/m]	electrical conductivity, x1 = 0.1395 [S/m]	viscosity, x1 = 0.039 [mPa·s]	viscosity, x1 = 0.099 [mPa·s]	viscosity, x1 = 0.1395 [mPa·s]
298.15 K	2.07	2.05	1.86	25.9	29.9	31.6
303.15 K	2.38	2.37	2.17	22	25.2	26.5
308.15 K	2.72	2.72	2.5	18.84	21.4	22.5
313.15 K	–	3.11	2.88	–	18.21	19.1
318.15 K	–	3.52	–	–	16	–
323.15 K	3.97	3.98	–	12.59	14.03	–
328.15 K	–	–	–	–	12.4	12.88
333.15 K	–	–	–	9.85	–	11.33
338.15 K	–	–	–	9.01	9.9	10.24
343.15 K	–	–	–	8.16	8.91	–
348.15 K	–	–	–	7.42	–	8.32
353.15 K	–	–	–	6.68	–	–

CC[n+]1ccn(C)c1.N#C[S-] + [N-]=C=S.[NH4+]
x2 = 0
Conditions	electrical conductivity [S/m]	viscosity [mPa·s]
298.15 K	2.32	23.1
303.15 K	2.67	19.68
308.15 K	3.06	16.97
313.15 K	3.47	14.54
318.15 K	3.92	12.98
328.15 K	–	10.25
333.15 K	–	9.02
338.15 K	–	8.3
343.15 K	–	7.53
